Source: patent US9695155B2, “Herbicidal substituted pyrimidinyloxy benzene compounds” (E. I. DU PONT DE NEMOURS AND COMPANY, priority 2013, dated 2017)

Assays:
large (Lg) crabgrass [1] = experiment: Test A preemergence; format: in vivo, Digitaria sanguinalis
Procedure, shortened: (§1)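 Scoring: eye-based comparison with untreated controls, 0 for no effect through 100 for complete control, at about day 10. Treatments: directed soil spray preemergence; foliar spray postemergence on 2–10 cm plants at the one- to two-leaf stage. Medium: loam soil with sand.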

giant foxtail [2] = experiment: Test A preemergence; format: in vivo, Setaria faberii
Procedure, shortened: as §1

pigweed [3] = experiment: Test A preemergence; format: in vivo, Amaranthus retroflexus
Procedure, shortened: as §1

velvetleaf [4] = experiment: Test A preemergence; format: in vivo, Abutilon theophrasti
Procedure, shortened: as §1

large (Lg) crabgrass [5] = experiment: Test A postemergence; format: in vivo, Digitaria sanguinalis
Procedure, shortened: as §1

giant foxtail [6] = experiment: Test A postemergence; format: in vivo, Setaria faberii
Procedure, shortened: as §1

pigweed [7] = experiment: Test A postemergence; format: in vivo, Amaranthus retroflexus
Procedure, shortened: as §1

velvetleaf [8] = experiment: Test A postemergence; format: in vivo, Abutilon theophrasti
Procedure, shortened: as §1

wheat, winter = experiment: Test C postemergence; format: in vivo, Triticum aestivum; conditions: for Plant response rating (0 to 100), Wheat: 0 is no effect, 100 is complete control; for Wheat plant response rating: 31 g ai/ha; for Wheat plant response rating / Plant response rating, Wheat: scale 0 to 100 (0 no effect, 100 complete control)
Procedure, shortened: (§2)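 Greenhouse herbicide screen. Pre: seeded loam/sand, sprayed at planting. Post: 1–4 leaf plants (2–18 cm) in peat-based mix. Formulation: solvent mixture + surfactant, non-phytotoxic. Readout: visual % control vs untreated, 13–15 d; dash = not tested.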

giant foxtail [9] = experiment: Test C postemergence; format: in vivo, Setaria faberii; conditions: for Plant response rating (0 to 100), Foxtail, Giant: 0 is no effect, 100 is complete control; for Foxtail, Giant plant response rating: 31 g ai/ha; for Foxtail, Giant plant response rating / Plant response rating, Foxtail, Giant: scale 0 to 100 (0 no effect, 100 complete control)
Procedure, shortened: as §2

ragweed = experiment: Test C postemergence; format: in vivo, Ambrosia elatior; conditions: for Plant response rating (0 to 100), Ragweed: 0 is no effect, 100 is complete control; for Ragweed plant response rating: 31 g ai/ha; for Ragweed plant response rating / Plant response rating, Ragweed: scale 0 to 100 (0 no effect, 100 complete control)
Procedure, shortened: as §2

soybean = experiment: Test C postemergence; format: in vivo, Glycine max; conditions: for Plant response rating (0 to 100), Soybean: 0 is no effect, 100 is complete control; for Soybean plant response rating: 31 g ai/ha; for Soybean plant response rating / Plant response rating, Soybean: scale 0 to 100 (0 no effect, 100 complete control)
Procedure, shortened: as §2

wild oat = experiment: Test C postemergence; format: in vivo, Avena fatua; conditions: for Plant response rating (0 to 100), Oat, Wild: 0 is no effect, 100 is complete control; for Oat, Wild plant response rating: 31 g ai/ha; for Oat, Wild plant response rating / Plant response rating, Oat, Wild: scale 0 to 100 (0 no effect, 100 complete control)
Procedure, shortened: as §2

velvetleaf [10] = experiment: Test C postemergence; format: in vivo, Abutilon theophrasti; conditions: for Plant response rating (0 to 100), Velvetleaf: 0 is no effect, 100 is complete control; for Velvetleaf plant response rating: 31 g ai/ha; for Velvetleaf plant response rating / Plant response rating, Velvetleaf: scale 0 to 100 (0 no effect, 100 complete control)
Procedure, shortened: as §2

chickweed = experiment: Test C postemergence; format: in vivo, Stellaria media; conditions: for Plant response rating (0 to 100), Chickweed: 0 is no effect, 100 is complete control; for Chickweed plant response rating: 31 g ai/ha; for Chickweed plant response rating / Plant response rating, Chickweed: scale 0 to 100 (0 no effect, 100 complete control)
Procedure, shortened: as §2

[11] = 500 g ai/ha, 0 to 100 scale where 0 is no effect and 100 is complete control
[12] = 125 g ai/ha, 0 to 100 scale where 0 is no effect and 100 is complete control
[13] = postemergence, visual rating, 13 to 15 days
[14] = 125 g ai/ha, postemergence, visual rating
[15] = Postemergence, 62 g ai/ha, 13 to 15 days
[16] = 1000 g ai/ha, 0 to 100 scale, 0 no effect, 100 complete control, approx. 10 days
[17] = 1000 g ai/ha, 0 to 100 scale, 0 no effect, 100 complete control

Clc1cnc(Oc2cccc(Br)c2-n2cc(Cl)cn2)nc1 [Compound 221]
Crabgrass, Large plant response rating (0 to 100 scale) (large (Lg) crabgrass [1]; 125 g ai/ha): 100
Crabgrass, Large plant response rating (large (Lg) crabgrass [1]; [11]): 100
Foxtail, Giant plant response rating (0 to 100 scale) (giant foxtail [2]; 125 g ai/ha): 100
Foxtail, Giant plant response rating (giant foxtail [2]; [11]): 100
Pigweed plant response rating (0 to 100 scale) (pigweed [3]; 125 g ai/ha): 100
Pigweed plant response rating (pigweed [3]; [11]): 100
Velvetleaf plant response rating (0 to 100 scale) (velvetleaf [4]; 125 g ai/ha): 10
Velvetleaf plant response rating (velvetleaf [4]; [11]): 70
Crabgrass, Large plant response rating (large (Lg) crabgrass [5]; [12]): 60
Plant response rating, Crabgrass, Large (large (Lg) crabgrass [5]; [11]): 100
Foxtail, Giant plant response rating (giant foxtail [6]; [12]): 50
Plant response rating, Foxtail, Giant (giant foxtail [6]; [11]): 90
Pigweed plant response rating (pigweed [7]; [12]): 100
Plant response rating, Pigweed (pigweed [7]; [11]): 100
Velvetleaf plant response rating (velvetleaf [8]; [12]): 100
Plant response rating, Velvetleaf (velvetleaf [8]; [11]): 100
Plant response rating (0 to 100), Wheat (wheat, winter; 16 g ai/ha, postemergence): 0
Wheat plant response rating (wheat, winter; [13]): 0
Plant response rating, Wheat (wheat, winter; [14]): 0
Plant response rating, Wheat (wheat, winter; [15]): 0
Plant response rating (0 to 100), Foxtail, Giant (giant foxtail [9]; 16 g ai/ha, postemergence): 0
Foxtail, Giant plant response rating (giant foxtail [9]; [13]): 5
Plant response rating, Foxtail, Giant (giant foxtail [9]; [14]): 5
Plant response rating, Foxtail, Giant (giant foxtail [9]; [15]): 5
Plant response rating (0 to 100), Ragweed (ragweed; 16 g ai/ha, postemergence): 5
Ragweed plant response rating (ragweed; [13]): 5
Plant response rating, Ragweed (ragweed; [14]): 10
Plant response rating, Ragweed (ragweed; [15]): 20
Plant response rating (0 to 100), Soybean (soybean; 16 g ai/ha, postemergence): 30
Soybean plant response rating (soybean; [13]): 55
Plant response rating, Soybean (soybean; [14]): 80
Plant response rating, Soybean (soybean; [15]): 65
Plant response rating (0 to 100), Oat, Wild (wild oat; 16 g ai/ha, postemergence): 5
Oat, Wild plant response rating (wild oat; [13]): 5
Plant response rating, Oat, Wild (wild oat; [14]): 30
Plant response rating, Oat, Wild (wild oat; [15]): 10
Plant response rating (0 to 100), Velvetleaf (velvetleaf [10]; 16 g ai/ha, postemergence): 35
Velvetleaf plant response rating (velvetleaf [10]; [13]): 35
Plant response rating, Velvetleaf (velvetleaf [10]; [14]): 75
Plant response rating, Velvetleaf (velvetleaf [10]; [15]): 45
Plant response rating (0 to 100), Chickweed (chickweed; 16 g ai/ha, postemergence): 20
Chickweed plant response rating (chickweed; [13]): 60
Plant response rating, Chickweed (chickweed; [14]): 50
Plant response rating, Chickweed (chickweed; [15]): 60

Clc1cnc(Oc2ccccc2-n2cc(I)nn2)nc1 [Compound 222]
Crabgrass, Large plant response rating (large (Lg) crabgrass [1]; [16]): 100
Foxtail, Giant plant response rating (giant foxtail [2]; [16]): 100
Pigweed plant response rating (pigweed [3]; [16]): 100
Velvetleaf plant response rating (velvetleaf [4]; [16]): 100
Plant response rating, Crabgrass, Large (large (Lg) crabgrass [5]; [17]): 100
Plant response rating, Foxtail, Giant (giant foxtail [6]; [17]): 90
Plant response rating, Pigweed (pigweed [7]; [17]): 100
Plant response rating, Velvetleaf (velvetleaf [8]; [17]): 100
Plant response rating (0 to 100), Wheat (wheat, winter; 8 g ai/ha, postemergence): 0
Plant response rating (0 to 100), Wheat (wheat, winter; 16 g ai/ha, postemergence): 0
Wheat plant response rating (wheat, winter; [13]): 0
Plant response rating, Wheat (wheat, winter; [15]): 5
Plant response rating (0 to 100), Foxtail, Giant (giant foxtail [9]; 8 g ai/ha, postemergence): 0
Plant response rating (0 to 100), Foxtail, Giant (giant foxtail [9]; 16 g ai/ha, postemergence): 5
Foxtail, Giant plant response rating (giant foxtail [9]; [13]): 5
Plant response rating, Foxtail, Giant (giant foxtail [9]; [15]): 5
Plant response rating (0 to 100), Ragweed (ragweed; 8 g ai/ha, postemergence): 20
Plant response rating (0 to 100), Ragweed (ragweed; 16 g ai/ha, postemergence): 40
Ragweed plant response rating (ragweed; [13]): 45
Plant response rating, Ragweed (ragweed; [15]): 60
Plant response rating (0 to 100), Soybean (soybean; 8 g ai/ha, postemergence): 40
Plant response rating (0 to 100), Soybean (soybean; 16 g ai/ha, postemergence): 55
Soybean plant response rating (soybean; [13]): 65
Plant response rating, Soybean (soybean; [15]): 60
Plant response rating (0 to 100), Oat, Wild (wild oat; 8 g ai/ha, postemergence): 5
Plant response rating (0 to 100), Oat, Wild (wild oat; 16 g ai/ha, postemergence): 10
Oat, Wild plant response rating (wild oat; [13]): 10
Plant response rating, Oat, Wild (wild oat; [15]): 30
Plant response rating (0 to 100), Velvetleaf (velvetleaf [10]; 8 g ai/ha, postemergence): 35
Plant response rating (0 to 100), Velvetleaf (velvetleaf [10]; 16 g ai/ha, postemergence): 40
Velvetleaf plant response rating (velvetleaf [10]; [13]): 35
Plant response rating, Velvetleaf (velvetleaf [10]; [15]): 50
Plant response rating (0 to 100), Chickweed (chickweed; 8 g ai/ha, postemergence): 10
Plant response rating (0 to 100), Chickweed (chickweed; 16 g ai/ha, postemergence): 60
Chickweed plant response rating (chickweed; [13]): 85
Plant response rating, Chickweed (chickweed; [15]): 100
